In patent US11040028B2, “Penicinotam derivative, preparation method and use thereof” (OCEAN UNIVERSITY OF CHINA, priority 2017, dated 2021):

Experiments:
Assay type in all cases: cell-based
[1] = tested on: cardiac fibroblast RAT-iCell-C002; assay: Anti-fibrosis activity test: inhibition of proliferation of cardiac fibroblast RAT-iCell-C002 (CCK-8); details: Cardiac fibroblast, 48 h
Procedure, shortened: (§1)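 Cells seeded at 2×10^4 cells/mL, adhered 24 h, then exposed to compound concentrations in triplicate for 48 h at 37° C, 5% CO2. CCK-8 added for 2 h, absorbance at 450 nm; inhibition = (1−Ai/Ao)×100% versus blank control, IC50 calculated.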

[2] = tested on: human lung fibroblasts HFL1; assay: Anti-fibrosis activity test: inhibition of proliferation of human lung fibroblasts HFL1 (CCK-8); details: Homo sapiens, HFL1, 48 h
Procedure, shortened: as §1

[3] = tested on: BHK-21 cells; assay: Anti-fibrosis activity test: inhibition of BHK-21 cell proliferation (CCK-8); details: Mesocricetus auratus, BHK-21, 48 h
Procedure, shortened: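 Read-out: CCK-8 absorbance at 450 nm after 2 h, giving proliferation inhibition (1−Ai/Ao)×100% versus blank control, from which IC50 was derived. Cells had been treated with compounds for 48 h after 24 h adherence at 37° C. Pirfenidone served as positive control.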

[4] = tested on: mouse macrophages (RAW264.7); assay: Lipopolysaccharide-induced NO secretion in macrophages (Griess); details: Mus musculus, RAW264.7, 24 h, RAW264.7, LPS 1 μg/ml, a/b isomers given as first/second symbol, read-out: IC50 (μM), inhibition of lipopolysaccharide-induced NO secretion in macrophages
Procedure, shortened: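 RAW264.7 macrophages in DMEM with 10% FBS received test samples at several concentrations and were stimulated with 1 μg/ml LPS for 24 h. NO in the supernatant was measured with the Griess reagent at 548 nm, […].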

[5] = tested on: human embryonic lung fibroblast IMR-90; assay: Anti-fibrosis activity test: inhibition of proliferation of human embryonic lung fibroblast IMR-90 (CCK-8)
Procedure, shortened: as §1

[6] = tested on: human hepatic stellate cells LX-2; assay: Anti-fibrosis activity test: inhibition of proliferation of human hepatic stellate cells LX-2 (CCK-8); details: Homo sapiens, 48 h
Procedure, shortened: as §1

[7] = tested on: human fibrosarcoma cells HT-1080; assay: Anti-fibrosis activity test: inhibition of proliferation of human fibrosarcoma cells HT-1080 (CCK-8); details: Homo sapiens, HT-1080, 48 h
Procedure, shortened: as §1

[8] = tested on: human dermal fibroblasts CCC-ESF-1; assay: Anti-fibrosis activity test: inhibition of proliferation of human dermal fibroblasts CCC-ESF-1 (CCK-8); details: Fibroblast
Procedure, shortened: as §1

[9] = tested on: NF-κB; assay: Immunological activity test: inhibition of NF-κB activity; details: initial concentration of 30 μM; a/b isomers given as first/second symbol; read-out: IC50 (μM), inhibitory activity against NF-κB
Procedure, shortened: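 IC50 values come from further analysis of the data after an initial test at a single 30 μM concentration. Parthenolide served as the reference inhibitor.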

[10] = cardiac fibroblast RAT-iCell-C002, CCK-8, 48 hours
[11] = human lung fibroblasts HFL1, CCK-8, 48 hours
[12] = CCK-8, 48 hours after administration
[13] = human embryonic lung fibroblast IMR-90, CCK-8, 48 hours
[14] = human hepatic stellate cells LX-2, CCK-8, 48 hours
[15] = human fibrosarcoma cells HT-1080, CCK-8, 48 hours
[16] = human dermal fibroblasts CCC-ESF-1, CCK-8, 48 hours
[17] = Homo sapiens, IMR-90 cells, 48 h, CCK-8
[18] = Homo sapiens, CCC-ESF-1 cells, 48 h, CCK-8

Compound	IC50 [1, 10] [mM]	IC50 [2, 11] [mM]	IC50 [3, 12] [mM]	IC50 [4] [µM]	IC50 [5, 13] [mM]	IC50 [6, 14] [mM]	IC50 [7, 15] [mM]	IC50 [8, 16] [mM]	IC50 [9] [µM]	IC50 ([1]; RAT-iCell-C002 cells, CCK-8) [mM]	IC50 ([2]; HFL1 cells, 48 h, CCK-8) [mM]	IC50 ([3]; 48 h, CCK-8) [mM]	IC50 [5, 17] [mM]	IC50 ([6]; LX-2, 48 h, LX-2 cells, CCK-8) [mM]	IC50 ([7]; HT-1080 cells, 48 h, CCK-8) [mM]	IC50 [8, 18] [mM]
CCOC(=O)/C=C/COc1c2c(nc3ccccc13)-c1cccn1C2=O [Compound 661b, ethyl (E)-4-((10-oxo-10H-pyrrolizino[1,2-b]quinolin-9-yl)oxy)but-2-enoate]	0.05 to 5	0.05 to 5	0.05 to 5	1 to 10	0.05 to 5	0.05 to 5	0.05 to 5	0.05 to 5	1 to 10	–	–	–	–	–	–	–
O=C1c2c(n(CCN3CCOCC3)c3ccccc3c2=O)-c2cccn21 [Compound 662a, 4-(2-Morpholinoethyl)-9H-pyrrolizino[1,2-b]quinoline-9,10(4H)-dione]	0.05 to 5	0.05 to 5	0.05 to 5	1 to 10	0.05 to 5	0.05 to 5	0.05 to 5	0.05 to 5	0.1 to 1	–	–	–	–	–	–	–
O=C1c2c(nc3ccccc3c2OCCN2CCOCC2)-c2cccn21 [Compound 662b, 9-(2-morpholinoethoxy)-10H-pyrrolizino[1,2-b]quinolin-10-one]	0.05 to 5	0.05 to 5	0.05 to 5	1 to 10	0.05 to 5	0.05 to 5	0.05 to 5	0.05 to 5	1 to 10	–	–	–	–	–	–	–
O=C1c2c(n(CCCN3CCOCC3)c3ccccc3c2=O)-c2cccn21 [Compound 663a, 4-(3-Morpholinopropyl)-9H-pyrrolizino[1,2-b]quinoline-9,10(4H)-dione]	0.05 to 5	0.05 to 5	< 0.05	0.1 to 1	0.05 to 5	0.05 to 5	0.05 to 5	0.05 to 5	1 to 10	–	–	–	–	–	–	–
O=C1c2c(nc3ccccc3c2OCCCN2CCOCC2)-c2cccn21 [Compound 663b, 9-(3-morpholinopropoxy)-10H-pyrrolizino[1,2-b]quinolin-10-one]	0.05 to 5	0.05 to 5	0.05 to 5	0.1 to 1	0.05 to 5	0.05 to 5	0.05 to 5	0.05 to 5	1 to 10	–	–	–	–	–	–	–
O=C1c2c(n(CCCCN3CCOCC3)c3ccccc3c2=O)-c2cccn21 [Compound 664a, 4-(4-Morpholinobutyl)-9H-pyrrolizino[1,2-b]quinoline-9,10(4H)-dione]	0.05 to 5	0.05 to 5	0.05 to 5	0.1 to 1	0.05 to 5	0.05 to 5	0.05 to 5	0.05 to 5	1 to 10	–	–	–	–	–	–	–
O=C1c2c(nc3ccccc3c2OCCCCN2CCOCC2)-c2cccn21 [Compound 664b, 9-(4-morpholinobutoxy)-10H-pyrrolizino[1,2-b]quinolin-10-one]	0.05 to 5	0.05 to 5	0.05 to 5	10 to 50	0.05 to 5	0.05 to 5	0.05 to 5	0.05 to 5	1 to 10	–	–	–	–	–	–	–
O=C1c2c(n(CCN3CCCCC3)c3ccccc3c2=O)-c2cccn21 [Compound 665a, 4-(2-(Piperidin-1-yl)ethyl)-9H-pyrrolizino[1,2-b]quinoline-9,10(4H)-dione]	–	–	–	1 to 10	–	–	–	–	0.1 to 1	0.05 to 5	0.05 to 5	0.05 to 5	0.05 to 5	< 0.05	0.05 to 5	0.05 to 5
O=C1c2c(nc3ccccc3c2OCCN2CCCCC2)-c2cccn21 [Compound 665b, 9-(2-(piperidin-1-yl)ethoxy)-10H-pyrrolizino[1,2-b]quinolin-10-one]	–	–	–	1 to 10	–	–	–	–	1 to 10	0.05 to 5	0.05 to 5	0.05 to 5	0.05 to 5	0.05 to 5	0.05 to 5	0.05 to 5
O=C1c2c(n(CCCN3CCCCC3)c3ccccc3c2=O)-c2cccn21 [Compound 666a, 4-(3-(Piperidin-1-yl)propyl)-9H-pyrrolizino[1,2-b]quinoline-9,10(4H)-dione]	–	–	–	1 to 10	–	–	–	–	1 to 10	0.05 to 5	0.05 to 5	0.05 to 5	0.05 to 5	0.05 to 5	0.05 to 5	0.05 to 5
O=C1c2c(nc3ccccc3c2OCCCN2CCCCC2)-c2cccn21 [Compound 666b, 9-(3-(piperidin-1-yl)propoxy)-10H-pyrrolizino[1,2-b]quinolin-10-one]	–	–	–	1 to 10	–	–	–	–	1 to 10	0.05 to 5	0.05 to 5	0.05 to 5	0.05 to 5	0.05 to 5	0.05 to 5	0.05 to 5
O=C1c2c(n(CCCCN3CCCCC3)c3ccccc3c2=O)-c2cccn21 [Compound 667a, 4-(4-(Piperidin-1-yl)butyl)-9H-pyrrolizino[1,2-b]quinoline-9,10(4H)-dione]	–	–	–	1 to 10	–	–	–	–	1 to 10	0.05 to 5	0.05 to 5	0.05 to 5	0.05 to 5	0.05 to 5	0.05 to 5	0.05 to 5
O=C1c2c(nc3ccccc3c2OCCCCN2CCCCC2)-c2cccn21 [Compound 667b, 9-(4-(piperidin-1-yl)butoxy)-10H-pyrrolizino[1,2-b]quinolin-10-one]	–	–	–	1 to 10	–	–	–	–	1 to 10	0.05 to 5	0.05 to 5	0.05 to 5	0.05 to 5	0.05 to 5	0.05 to 5	0.05 to 5
O=C1c2c(n(Cc3ccccc3[N+](=O)[O-])c3ccccc3c2=O)-c2cccn21 [Compound 668a, 4-(2-Nitrobenzyl)-9H-pyrrolizino[1,2-b]quinoline-9,10(4H)-dione]	–	–	–	1 to 10	–	–	–	–	0.1 to 1	0.05 to 5	0.05 to 5	0.05 to 5	0.05 to 5	0.05 to 5	0.05 to 5	0.05 to 5
O=C1c2c(nc3ccccc3c2OCc2ccccc2[N+](=O)[O-])-c2cccn21 [Compound 668b, 9-((2-nitrobenzyl)oxy)-10H-pyrrolizino[1,2-b]quinolin-10-one]	–	–	–	1 to 10	–	–	–	–	1 to 10	0.05 to 5	0.05 to 5	0.05 to 5	0.05 to 5	0.05 to 5	0.05 to 5	0.05 to 5
